Experimental data as given in patent US6613317B1, “Volatile attractants for diabrotica species” (priority 1988, dated 2003).
Marks after values point to notes of the source that are not given here.

How the values were obtained:
[1] = test system: northern corn rootworm (NCR); assay: Sticky trap attraction in corn, phenylethanol analogues (Example 6); type: in vivo, Diabrotica barberi; details: four replicates; for Mean number of NCR per trap (± standard deviation): 24 hour
Procedure, shortened: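 Readout was mean adult Diabrotica catch per trap over about 24 h, analysed by ANOVA on log data with Duncan's multiple range test (P=0.05). Traps carried 100 mg or 100 μL attractant per wick unless stated otherwise, with untreated controls, in four randomised replicates 10 m apart on posts along corn fields.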

[2] = test system: western corn rootworm (WCR) adults; assay: Sticky trap attraction in corn, estragole analogues (Example 3); type: in vivo, Diabrotica virgifera virgifera; details: 100 mg per trap, n = 4
Procedure, shortened: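 Cotton wicks dosed with 100 mg or 100 μL attractant per trap on TangleTrap-coated cartons, four replicates 10 m apart on 1 m posts at field edges of hybrid or sweet corn. Mean beetles caught after ~24 h; log-transformed ANOVA with Duncan's test, P=0.05.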

SCR = assay: Limit of response rating of squash blossom volatiles on sticky traps (Example 5); type: in vivo, Diabrotica undecimpunctata howardi; details: 24 hour; four replicate traps; 0.01 mg to 200 mg
Procedure, shortened: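 Adult Diabrotica beetles were tested against cylindrical sticky traps baited with cotton wicks holding 0.01 mg to 200 mg of individual Cucurbita maxima blossom volatiles. Response limit rated by trap catch.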

[3] = test system: western corn rootworm (WCR); assay: Sticky trap attraction in corn, phenylethanol analogues (Example 6); type: in vivo, Diabrotica virgifera virgifera; details: Table 16; 100 mg per trap; four replicates; 24 hour
Method: Test chemicals (purchased from Aldrich Chemical Co.; Milwaukee, Wis.) were applied by capillary micropipettes to cotton dental wicks that were attached to tops of 1.0 liter cylindrical paper cartons covered with TangleTrap™, Grand Rapids, Mich. The trapping techniques used were as previously described in Example 1. Unless otherwise indicated, all treatments were made at a dosage of 100 mg or 100 μL of attractant per trap. Control traps had untreated wicks. Four replicates of treated and untreated traps were positioned randomly 10 meters apart on top of 1 m high posts along the edges of 25-50 ha. fields of hybrid corn (Zea mays), infested with adult NCR, SCR, and WCR beetles. Several experiments detailed in the Tables were made in a 0.4 ha plot of sweet corn (Illini X-tra Sweet).
Attraction of Diabrotica species adults of the sticky traps was measured by the mean number of beetles caught after 1 day (ca. 24 hours) exposure. The significance of the treatments was determined by analysis of variance and the individual means were separated by Duncan's multiple range test (Statistical Package for the Social Sciences, Nie, et al., 2nd. ed. McGraw-Hill, New York (1975). The data was logarithmically transformed for statistical analysis. Means and standard deviations are presented for the untransformed data. Significance levels were set at P=0.05 for all statistical analyses.

D. u. howardi adults = type: in vivo, Diabrotica undecimpunctata howardi; details: 1% incorporated into TEX×PEP bait, petri-dish tests
Source text: A noncucurbit carrier, 10-mesh corn grits (71% of which passed through a 2-mm screen), was obtained from Illinois Cereal Mills, Paris, Ill. (designated as pesticide carrier grits, 980). This carrier was impregnated with different levels of cucurbitacins by addition of varying amounts of a chloroform extract of AND×MAX fruit containing 0.12% cucurbitacins B and D (Metcalf, et al., Proc. Natl. Acad. Sci. USA, 77:3769-3772 (1980), Metcalf, et al., Environ. Entomol., 11:921-927 (1982)). The cucurbitacin-containing areas were scraped from plates, extracted in anhydrous methanol, centrifuged, and the UV absorption at 210 nm determined by UV spectrophotometry. Content of cucurbitacins was quantified from standard curves of pure cucurbitacins B, D, E and I, and E-glycoside (Metcalf, et al., Proc. Natl. Acad. Sci. USA, 77:3769-3772 (1980), Metcalf, et al., Environ. Entomol., 11:921-927 (1982)).
The various dried, ground, and insecticide-treated baits were given preliminary field evaluation by placing uniform amounts in petri-dish halves (150-mm diameter) that were placed at random on the ground in cucurbit and corn rows heavily infested ith SCR, WCR, and SCB adults. Ten dishes were used for each treatment; the maximum dosage of dried baits used was 300 mg per dish, equivalent to […]. Mortality counts of adult beetles in the dishes were made after 20-40 h.

NCR = details: in vivo; cited from earlier work
[4] = day 1 after single 100 mg dosage on cotton wick
[5] = day 2 after single 100 mg dosage on cotton wick
[6] = day 3 after single 100 mg dosage on cotton wick
[7] = day 4 after single 100 mg dosage on cotton wick
[8] = day 5 after single 100 mg dosage on cotton wick
[9] = day 6 after single 100 mg dosage on cotton wick
[10] = day 7 after single 100 mg dosage on cotton wick
[11] = day 8 after single 100 mg dosage on cotton wick
[12] = day 11 after single 100 mg dosage on cotton wick

## OCC=Cc1ccccc1 [XVIII, cinnamyl alcohol]
[1]; Table 16, 100 mg per trap
  Mean number of NCR per trap (± standard deviation): 50.7 ± 50.9b per trap
[1]; Table 18, 1 mg
  Mean number of NCR per trap (± standard deviation): 3.5 ± 2.4a per trap
[1]; Table 18, 3 mg
  Mean number of NCR per trap (± standard deviation): 4.0 ± 0.8ab per trap
[1]; Table 18, 10 mg
  Mean number of NCR per trap (± standard deviation): 8.5 ± 2.1bc per trap
[1]; Table 18, 30 mg
  Mean number of NCR per trap (± standard deviation): 15.2 ± 4.2c* per trap
[1]; Table 20, 100 mg per trap
  Mean number of NCR per trap (± standard deviation): 127.0 ± 24.2b per trap
[1]; [4]
  Mean number (control subtracted) of NCR per trap: 52.0 per trap
[1]; [5]
  Mean number (control subtracted) of NCR per trap: 65.3 per trap
[1]; [6]
  Mean number (control subtracted) of NCR per trap: 17.3 per trap
[1]; [7]
  Mean number (control subtracted) of NCR per trap: 19.5 per trap
[1]; [8]
  Mean number (control subtracted) of NCR per trap: 17.7 per trap
[1]; [9]
  Mean number (control subtracted) of NCR per trap: 7.7 per trap
[1]; [10]
  Mean number (control subtracted) of NCR per trap: 10.4 per trap
[1]; [11]
  Mean number (control subtracted) of NCR per trap: 11.0 per trap
[1]; [12]
  Mean number (control subtracted) of NCR per trap: 9.8 per trap
[2]; August 5 (Table 10)
  Mean number of WCR per sticky trap after 24 hours: 16.5 ± 1.9^ab per sticky trap
[2]; August 7 (Table 11)
  Mean number of WCR (±standard deviation) per sticky trap after 24 hours: 13.8 ± 10.2^a per sticky trap
[2]; August 18 (Table 11)
  Mean number of WCR (±standard deviation) per sticky trap after 24 hours: 3.3 ± 1.7^a per sticky trap
SCR
  Attractant Rating SCR (by limit of response): +2 (10-30)
[3]
  Mean number of WCR per trap (±standard deviation): 4.0 ± 1.6a per trap

## C=CCc1ccc(O)c(OC)c1 [XXIV, eugenol]
[1]; [4]
  Mean number (control subtracted) of NCR per trap: 88.2 per trap
[1]; [5]
  Mean number (control subtracted) of NCR per trap: 67.3 per trap
[1]; [6]
  Mean number (control subtracted) of NCR per trap: 14.3 per trap
[1]; [7]
  Mean number (control subtracted) of NCR per trap: 18.0 per trap
[1]; [8]
  Mean number (control subtracted) of NCR per trap: 20.7 per trap
[1]; [9]
  Mean number (control subtracted) of NCR per trap: 29.9 per trap
[1]; [10]
  Mean number (control subtracted) of NCR per trap: 30.2 per trap
[1]; [11]
  Mean number (control subtracted) of NCR per trap: 35.5 per trap
[1]; [12]
  Mean number (control subtracted) of NCR per trap: 10.0 per trap
D. u. howardi adults
  increase in the kill of SCR beetles: 4 fold
[2]; August 7 (Table 11)
  Mean number of WCR (±standard deviation) per sticky trap after 24 hours: 10.0 ± 2.9^a per sticky trap
[2]; August 18 (Table 11)
  Mean number of WCR (±standard deviation) per sticky trap after 24 hours: 2.7 ± 2.9^a per sticky trap
NCR
  LR for NCR, most effective volatile attractant yet identified: 10 mg
